{
  "source": "patent US20210330606A1",
  "about": "“GLUCOSE CONSUMPTION ACCELERATOR AND GLYCOLYSIS ACCELERATOR” (SHINKO SANGYO Co., Ltd., priority 2018, published 2021)",
  "key": {"[1]": {"system": "Rat-derived fibroblasts (Py-3Y1-S2, subculture strain)", "test": "Lactate concentration in culture solution of fibroblasts (relative value, control = 100)", "assay_type": "cell-based", "conditions": "drug 1 mg/ml, control = 100 (FIG. 7A)", "description": "(§1) First, samples of 2-amino-1-cyclohexylethanol and 2-amino-1-phenylethanol were prepared in the same manner as in Example 1. The fibroblasts and the liver cancer cells were cultured under the same conditions as in Examples 1 and 5. […] As a control, the culture was performed in the same manner except that distilled water to which the drug was not added was added to the culture solution instead of the sample.\n(§2) After the addition of the drug, the culture solution was diluted so that the weight ratio of the culture solution to distilled water was 1:19, and the lactate concentration of the diluted culture solution was measured. The lactate concentration was measured using a lactate assay kit (product name: Lactate Assay Kit-WST, product of Dojindo Laboratories)."}, "[2]": {"system": "rat-derived liver cancer cells (Ry121B, subculture line)", "test": "Lactate concentration in culture solution of liver cancer cells (relative value, control = 100)", "assay_type": "cell-based", "conditions": "drug 1 mg/ml, control = 100 (FIG. 7B)", "description": "as §1, §2"}},
  "data": [
    {"compound": "NCC(O)c1ccccc1", "note": "(centres unmarked) [2-amino-1-phenylethanol]", "values": [
      {"measurement": "relative value of lactate concentration", "setting": "[1]", "value": "about 185"},
      {"measurement": "relative value of lactate concentration", "setting": "[2]", "value": "about 135"}
    ]}
  ]
}
